According to patent US20250215029A1 (Recludix Pharma, Inc., priority 2022, published 2025):

Each molecule was assayed against T1, pY641-STAT6 in PBMC (Homo sapiens, UniProt P42226) (assay: MSD-pSTAT-PBMC Assay (pSTAT6, IL-4 stimulated)). Settings: STAT6, PBMC, compound 3 hrs, then 1 ng/mL IL-4 for 10 min; Table 115.
T1 construct: Cryopreserved Peripheral Blood Mononuclear Cells (PBMC) are from AllCells; host or cells: cryopreserved PBMC
T1 sequence (P42226 1-847): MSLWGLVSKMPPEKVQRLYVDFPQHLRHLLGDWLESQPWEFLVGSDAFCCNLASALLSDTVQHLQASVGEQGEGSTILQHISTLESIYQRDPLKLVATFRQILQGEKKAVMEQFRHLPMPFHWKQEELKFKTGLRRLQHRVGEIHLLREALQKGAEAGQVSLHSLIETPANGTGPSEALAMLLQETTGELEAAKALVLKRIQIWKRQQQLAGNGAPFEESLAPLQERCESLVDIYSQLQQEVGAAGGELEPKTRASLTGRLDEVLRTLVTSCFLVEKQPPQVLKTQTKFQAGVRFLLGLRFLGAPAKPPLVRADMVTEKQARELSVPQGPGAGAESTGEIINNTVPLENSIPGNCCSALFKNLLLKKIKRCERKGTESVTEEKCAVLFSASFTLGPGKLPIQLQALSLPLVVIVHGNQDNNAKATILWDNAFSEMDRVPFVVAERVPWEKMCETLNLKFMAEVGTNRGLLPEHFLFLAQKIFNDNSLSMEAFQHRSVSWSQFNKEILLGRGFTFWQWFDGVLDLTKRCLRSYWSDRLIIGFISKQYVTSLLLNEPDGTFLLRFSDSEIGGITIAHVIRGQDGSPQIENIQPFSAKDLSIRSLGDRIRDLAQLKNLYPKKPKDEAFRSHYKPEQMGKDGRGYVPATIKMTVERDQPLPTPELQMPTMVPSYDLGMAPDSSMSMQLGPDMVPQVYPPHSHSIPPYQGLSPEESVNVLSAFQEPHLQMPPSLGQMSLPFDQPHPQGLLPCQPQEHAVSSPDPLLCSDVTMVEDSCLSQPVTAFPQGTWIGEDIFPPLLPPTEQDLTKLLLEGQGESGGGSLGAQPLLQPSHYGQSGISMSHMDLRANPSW
Format: cell-based
Summary of the method: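 Cells are preincubated with compound for 3 hrs, then stimulated for 10 min, IL-4 at 1 ng/mL driving STAT6 phosphorylation and IL-6 at 10 ng/mL driving STAT3. Phospho-STAT in lysates is quantified by MSD immunoassay, and IC50 is fitted after subtracting unstimulated wells.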
`CCCOC(=O)[C@H](C)N[P@@](=O)(Oc1ccccc1)[C@@H](F)c1ccc2sc(C(=O)N[C@H]3CCCC[C@H]4CC[C@@H](C(=O)N5C[C@@H](c6cccnc6)CC56CC6)N4C3=O)cc2c1` (single isomer, unassigned) [Compound 461] was tested, and the IC50 was < 100 nM.
In the case of `C[C@H](NP(=O)(Oc1ccccc1)[C@@H](F)c1ccc2sc(C(=O)N[C@H]3CCCC[C@H]4CC[C@@H](C(=O)N5C[C@@H](c6cccnc6)CC56CC6)N4C3=O)cc2c1)C(=O)OCC1(C)COC1` (stereo partly drawn) [Compound 386, (3-methyloxetan-3-yl)methyl (((R)-fluoro(2-(((3S,6S,10aS)-5-oxo-3-((R)-6-(pyridin-3-yl)-4-azaspiro[2.4]heptane-4-carbonyl)decahydropyrrolo[1,2-a]azocin-6-yl)carbamoyl)benzo [b]thiophen-5-yl)methyl)(phenoxy)phosphoryl)-L-alaninate], the IC50 is reported as < 100 nM.
`CC(C)OC(=O)[C@H](C)NP(=O)(Cc1ccc2sc(C(=O)N[C@H]3CCCC[C@H]4CC[C@@H](C(=O)N5C[C@@H](c6cccnc6)CC56CC6)N4C3=O)cc2c1)Oc1ccccc1` (stereo partly drawn) [Compound 475, isopropyl (((2-(((3S,6S,10aS)-5-oxo-3-((R)-6-(pyridin-3-yl)-4-azaspiro[2.4]heptane-4-carbonyl)decahydropyrrolo[1,2-a]azocin-6-yl)carbamoyl)benzo [b]thiophen-5-yl)methyl)(phenoxy)phosphoryl)-L-alaninate] was tested, and the IC50 was 100 to 1000 nM.
For `CCCOC(=O)[C@H](C)NP(=O)(Oc1ccccc1)[C@H](F)c1ccc2sc(C(=O)N[C@H]3C[C@@H](C)C[C@H]4CC[C@@H](C(=O)N5C[C@H](c6ccccc6)[C@@H](C#N)C56CC6)N4C3=O)cc2c1` (stereo partly drawn) [Compound 349, propyl (((S)-(2-(((3S,6S,8R,9aR)-3-((6S,7R)-7-cyano-6-phenyl-4-azaspiro[2.4]heptane-4-carbonyl)-8-methyl-5-oxooctahydro-1H-pyrrolo[1,2-a]azepin-6-yl)carbamoyl)benzo [b]thiophen-5-yl)fluoromethyl) (phenoxy)phosphoryl)-L-alaninate], the IC50 was < 100 nM.
With `CCCOC(=O)[C@H](C)NP(=O)(Oc1ccccc1)[C@@H](F)c1ccc2sc(C(=O)N[C@H]3CCC[C@H]4CC[C@@H](C(=O)N5C[C@@H](c6ccn(C)c(=O)c6)CC56CC6)N4C3=O)cc2c1` (stereo partly drawn) [Compound 346, propyl (((R)-fluoro(2-(((3S,6S,9aS)-3-((R)-6-(1-methyl-2-oxo-1,2-dihydropyridin-4-yl)-4-azaspiro[2.4]heptane-4-carbonyl)-5-oxooctahydro-1H-pyrrolo[1,2-a]azepin-6-yl)carbamoyl)benzo [b]thiophen-5-yl)methyl)(phenoxy)phosphoryl)-L-alaninate] the IC50 was < 100 nM.
For `C[C@H](NP(=O)(Oc1ccccc1)[C@@H](F)c1ccc2sc(C(=O)N[C@H]3CCCC[C@H]4CC[C@@H](C(=O)N5C[C@@H](c6cccnc6)CC56CC6)N4C3=O)cc2c1)C(=O)OCc1ccccc1` (stereo partly drawn) [Compound 472, benzyl (((R)-fluoro(2-(((3S,6S,10aS)-5-oxo-3-((R)-6-(pyridin-3-yl)-4-azaspiro[2.4]heptane-4-carbonyl)decahydropyrrolo[1,2-a]azocin-6-yl)carbamoyl)benzo [b]thiophen-5-yl)methyl)(phenoxy)phosphoryl)-L-alaninate], the IC50 was < 100 nM.
In the case of `CCCOC(=O)[C@H](C)NP(=O)(Oc1ccccc1)C(F)c1ccc2sc(C(=O)N[C@H]3CCCC[C@H]4CC[C@@H](C(=O)N5CCC(O)(c6ccn(C)c(=O)c6)C5)N4C3=O)cc2c1` (stereo partly drawn) [Compound 466, propyl ((fluoro(2-(((3S,6S,10aS)-3-(3-hydroxy-3-(1-methyl-2-oxo-1,2-dihydropyridin-4-yl)pyrrolidine-1-carbonyl)-5-oxodecahydropyrrolo [1,2-a]azocin-6-yl)carbamoyl)benzo [b]thiophen-5-yl)methyl)(phenoxy)phosphoryl)-L-alaninate], the IC50 is reported as > 3000 nM.
`C[C@H](NP(=O)(Oc1ccccc1)[C@@H](F)c1ccc2sc(C(=O)N[C@H]3CCCC[C@H]4CC[C@@H](C(=O)N5C[C@@H](c6cccnc6)CC56CC6)N4C3=O)cc2c1)C(=O)OCC1COC1` (stereo partly drawn) [Compound 374, oxetan-3-ylmethyl (((R)-fluoro(2-(((3S,6S,10aS)-5-oxo-3-((R)-6-(pyridin-3-yl)-4-azaspiro[2.4]heptane-4-carbonyl)decahydropyrrolo[1,2-a]azocin-6-yl)carbamoyl)benzo [b]thiophen-5-yl)methyl)(phenoxy)phosphoryl)-L-alaninate] was tested, and the IC50 was < 100 nM.
`C[C@H](NP(=O)(Oc1ccccc1)[C@@H](F)c1ccc2sc(C(=O)N[C@H]3CCC[C@H]4CC[C@@H](C(=O)N5C[C@@H](c6cccnc6)CC56CC6)N4C3=O)cc2c1)C(=O)OCc1cccnn1` (stereo partly drawn) [Compound 366, pyridazin-3-ylmethyl (((R)-fluoro(2-(((3S,6S,9aS)-5-oxo-3-((R)-6-(pyridin-3-yl)-4-azaspiro[2.4]heptane-4-carbonyl)octahydro-1H-pyrrolo[1,2-a]azepin-6-yl)carbamoyl)benzo [b]thiophen-5-yl)methyl)(phenoxy)phosphoryl)-L-alaninate] was tested, and the IC50 was 100 to 1000 nM.
For `CCCOC(=O)[C@H](C)NP(=O)(Oc1ccccc1)[C@@H](F)c1ccc2sc(C(=O)N[C@H]3CCC[C@H]4CC[C@@H](C(=O)N5C[C@H](c6cccnc6)[C@@H](C#N)C56CC6)N4C3=O)cc2c1` (single isomer, unassigned) [Compound 362], the IC50 was < 100 nM.
For `CCCOC(=O)[C@H](C)NP(=O)(Oc1ccccc1)C(F)(F)c1ccc2ccc(C(=O)N[C@H]3CCCC[C@H]4CC[C@@H](C(=O)N5C[C@@H](c6cc[nH]c(=O)c6)CC56CC6)N4C3=O)cc2c1` (stereo partly drawn) [Compound 414, propyl ((difluoro(7-(((3S,6S,10aS)-5-oxo-3-((R)-6-(2-oxo-1,2-dihydropyridin-4-yl)-4-azaspiro[2.4]heptane-4-carbonyl)decahydropyrrolo[1,2-a]azocin-6-yl)carbamoyl)naphthalen-2-yl)methyl)(phenoxy)phosphoryl)-L-alaninate], the IC50 was 100 to 1000 nM.
`CCCOC(=O)[C@H](C)NP(=O)(Oc1ccccc1)[C@@H](F)c1ccc2sc(C(=O)N[C@H]3CCCC[C@H]4CC[C@@H](C(=O)N5C[C@H](c6cccc(C#N)c6)[C@@H](C#N)C56CC6)N4C3=O)cc2c1` (single isomer, unassigned) [Compound 339] was tested, and the IC50 was < 100 nM.
For `CCCOC(=O)[C@H](C)NP(=O)(Oc1ccccc1)C(F)(F)c1ccc2ccc(C(=O)N[C@H]3CCCC[C@H]4CC[C@@H](C(=O)N5CCC(c6cccnc6)C5)N4C3=O)cc2c1` (stereo partly drawn) [Compound 312, propyl ((difluoro(7-(((3S,6S,10aS)-5-oxo-3-(3-(pyridin-3-yl)pyrrolidine-1-carbonyl)decahydropyrrolo[1,2-a]azocin-6-yl)carbamoyl)naphthalen-2-yl)methyl)(phenoxy)phosphoryl)-L-alaninate], the IC50 was > 3000 nM.
In the case of `CCCOC(=O)[C@H](C)NP(=O)(Oc1ccccc1)[C@H](F)c1ccc2sc(C(=O)N[C@H]3CC[C@H](N4CCC4)C[C@H]4CC[C@@H](C(=O)N5C[C@H](c6ccccc6)[C@@H](C#N)C56CC6)N4C3=O)cc2c1` (stereo partly drawn) [Compound 491, propyl (((S)-(2-(((3S,6S,9S,10aR)-9-(azetidin-1-yl)-3-((6S,7R)-7-cyano-6-phenyl-4-azaspiro[2.4]heptane-4-carbonyl)-5-oxodecahydropyrrolo [1,2-a]azocin-6-yl)carbamoyl)benzo [b]thiophen-5-yl)fluoromethyl) (phenoxy)phosphoryl)-L-alaninate], the IC50 is reported as < 100 nM.
`CCCOC(=O)[C@H](C)NP(=O)(Oc1ccccc1)C(F)c1ccc2ccc(C(=O)N[C@H]3CCCC[C@H]4CC[C@@H](C(=O)N5CCC(c6cccnc6)C5)N4C3=O)cc2c1` (stereo partly drawn) [Compound 427, propyl ((fluoro(7-(((3S,6S,10aS)-5-oxo-3-(3-(pyridin-3-yl)pyrrolidine-1-carbonyl)decahydropyrrolo[1,2-a]azocin-6-yl)carbamoyl)naphthalen-2-yl)methyl)(phenoxy)phosphoryl)-L-alaninate] was tested, and the IC50 was < 100 nM.
In the case of `CCCOC(=O)[C@H](C)NP(=O)(Oc1ccccc1)C(F)c1ccc2sc(C(=O)N[C@H]3CCCC[C@H]4CC[C@@H](C(=O)N5C(=O)N(c6cccnc6)C(=O)C5(C)C)N4C3=O)cc2c1` (stereo partly drawn) [Compound 989, propyl (((2-(((3S,6S,10aS)-3-(5,5-dimethyl-2,4-dioxo-3-(pyridin-3-yl)imidazolidine-1-carbonyl)-5-oxodecahydropyrrolo [1,2-a]azocin-6-yl)carbamoyl)benzo [b]thiophen-5-yl)fluoromethyl) (phenoxy)phosphoryl)-L-alaninate], the IC50 is reported as > 3000 nM.
